From US10174067B2, “Type of cytidine derivative and application thereof” (priority 2014, dated 2019)
Marks after values point to notes of the source that are not given here.

Tests used:
[1] = tested on: HCT-116 colon cancer xenografts; experiment: Tumor growth inhibition of HCT-116 colon cancer xenografts in tumor-bearing nude mice (tumor volume, TGI %, RTV, T/C %); format: in vivo, Balb/c Nude mice
Experimental: 4.1 Tumor cells: colon cancer HCT-116 cells, purchased from the Institute of Cell Biology, Chinese Academy of Sciences. The cells were incubated by F-12 medium (containing 10% FBS) in carbon dioxide incubator at 37° C. and in saturated humidity, with 5% CO2 and 95% air in volume fraction. Before inoculation, the cells at logarithmic phase were taken, and digested with 0.25% trypsin, washed once with PBS and resuspended in PBS for counting. The cells were resuspended in serum-free medium and adjusted to about 3×10^7 cell/mL.
The grouping is as follows:
The formations of tumor at the inoculation site of each group of nude mice were observed. The diameter of tumor nodule (D) was measured three times a week with round hole ruler, and the volume of tumor nodule (V) was calculated according to the following formula: […].
Anti-tumor activity was evaluated by tumor growth inhibition rate TGI (%) and relative tumor proliferation rate T/C (%).
The relative tumor volume (RTV) was calculated as: RTV=Vt/V0, where V0 was the tumor volume when they were grouped and administered, and Vt was the tumor volume at the time of measurement.
The relative proliferation rate T/C (%) was calculated as: […].
TRTV: RTV of the treatment group; CRTV: RTV of the control group.
P<0.05 was considered as significant difference.

ICR mice = experiment: in vivo; settings: female ICR mice; single-dose ip
Experimental: This experiment was to investigate the toxic effects of single-dose intraperitoneal administration on ICR mice and determine the maximum tolerated dose (MTD) of each subject. Maximum tolerated dose (MTD) refers to the dose that may not cause an animal to die, may not cause the animal to suffer weight loss exceeding 10% (compared with Day 0), or may not produce significant side effects.
(§1) The corresponding amount of test substance was taken in a 5 mL glass tube and dissolved in ethanol with a 5 mm magnetic stirrer for stirring. After dissolving completely, Cremophor EL was added with continuous stirring. The marked amount of saline was added and mixed evenly before use. The volume ratio of ethanol, Cremophor EL, and physiological saline was 5:5:90.
Varieties and lines: ICR mice; level: SPF; sex: female.
Method of administration: ip. The dose was reduced in case of animal death, till an animal survived; the dose was increased in case of no animal death; the test was ended when the animals survived normally at the given high dose. Finally, the MTD of the mice on the test substances was determined according to the test results. The animals were observed continuously for 7 days after acute administration.
During the experiment, all animals were under detailed and continuous clinical observation for […], twice a day (10:00 am, 16:00 pm) after administration. The observation included but not limited to: skin, hair, ear, nose, mouth, chest, abdomen, external genitalia, limbs and feet, respiratory and circulatory system, autonomic effects (such as salivation), nervous system (such as tremor, convulsions, stress response and abnormal behavior).
The body of animals was weighed before administration, and then weighed and recorded at the same time each day.
The observation results, animal body weight, and animal survival after one week of administration were recorded in detail every day.

[2] = Experimental: To determine the growth inhibition effect and toxicity of the cytidine derivative samples of the present invention on the transplanted tumor of nude mice bearing colon cancer HCT-116.
as §1
Varieties and lines; Balb/c Nude mice; level: SPF; sex: female.
4.2 Animal inoculation and grouping: Each nude mouse was inoculated subcutaneously with 0.1 mL of cell suspension (3×10^6 cell/mouse) at right side of hind limb in a sterile stale. When the tumor grew to about 60-150 mm^3, the nude mice with similar tumor volume and desirable shape were selected (it would be better to select single spherical shape, no irregular shape or multiple tumors grouped together) for grouping, 6 mice a group. The grouping is as follows:
The control group, namely the model control group, was injected with a mixture of ethanol, Cremophor EL, and saline (5:5:90).
Those mice were weighed three times a week.
All clinical symptoms of each animal should be recorded at the beginning of the test and during the test. The observations should be made at the same time each day.
An animal would be killed by CO2 when its weight loss was more than 20%, when it was about to die, or when its tumor volume exceeded 2800 mm^3. The tumor was separated and weighed, and the animal was autopsied and observed to evaluate and record whether there were pathological changes in the organs.
The data were expressed as Mean±SEM unless specially provided; Non-pairing T test was performed for the data between the two groups. P<0.05 was considered as significant difference.

[3] = Day 0, G3-G9 groups, single IP dose, Mean±SEM
[4] = Day 4, G3-G9 groups, single IP dose, Mean±SEM
[5] = Day 6, G3-G9 groups, single IP dose, Mean±SEM
[6] = Day 8, G3-G9 groups, single IP dose, Mean±SEM
[7] = Day 11, G3-G9 groups, single IP dose, Mean±SEM
[8] = Day 13, G3-G9 groups, single IP dose, Mean±SEM
[9] = Day 15, G3-G9 groups, single IP dose, Mean±SEM
[10] = Day 18, G3-G9 groups, single IP dose, Mean±SEM
[11] = Day 20, G3-G9 groups, single IP dose, Mean±SEM
[12] = Day 22, G3-G9 groups, single IP dose, Mean±SEM

O=C(Nc1ccn([C@@H]2O[C@H](CO)[C@@H](O)C2(F)F)c(=O)n1)OCc1ccc([N+](=O)[O-])cc1 [Compound G5, 4-N-(4-nitrocarboxybenzyl)-2′-deoxy-2′,2′-difluorocytidine]
Day 0 (RTV) [1, 3]: 1.00 ± 0.00
Tumor volume, Day 0 [1, 3]: 65.68 ± 20.50** mm^3
Day 4 (TGI %) ([1]; Day 4, G3-G9 groups, single IP dose): 77.08%
Day 4 (RTV) [1, 4]: 0.89 ± 0.17
Tumor volume, Day 4 [1, 4]: 61.06 ± 22.28** mm^3
Day 6 (TGI %) ([1]; Day 6, G3-G9 groups, single IP dose): 90.77%
Day 6 (RTV) [1, 5]: 0.62 ± 0.08
Tumor volume, Day 6 [1, 5]: 39.01 ± 12.19** mm^3
Day 8 (TGI %) ([1]; Day 8, G3-G9 groups, single IP dose): 93.03%
Day 8 (RTV) [1, 6]: 0.53 ± 0.06
Tumor volume, Day 8 [1, 6]: 36.63 ± 13.03** mm^3
tumor inhibition effect ([1]; Day 8 to Day 13 after single-dose intraperitoneal administration): good tumor inhibition effect
Day 11 (TGI %) ([1]; Day 11, G3-G9 groups, single IP dose): 94.46%
Day 11 (RTV) [1, 7]: 0.60 ± 0.08
Tumor volume, Day 11 [1, 7]: 44.57 ± 18.01** mm^3
Day 13 (TGI %) ([1]; Day 13, G3-G9 groups, single IP dose): 93.46%
Day 13 (RTV) [1, 8]: 1.04 ± 0.14
Tumor volume, Day 13 [1, 8]: 75.90 ± 28.06** mm^3
Day 15 (TGI %) ([1]; Day 15, G3-G9 groups, single IP dose): 90.78%
Day 15 (RTV) [1, 9]: 1.91 ± 0.35
Tumor volume, Day 15 [1, 9]: 130.29 ± 45.17** mm^3
Day 18 (TGI %) ([1]; Day 18, G3-G9 groups, single IP dose): 87.26%
Day 18 (RTV) [1, 10]: 3.76 ± 0.64
Tumor volume, Day 18 [1, 10]: 235.85 ± 70.86** mm^3
Day 20 (TGI %) ([1]; Day 20, G3-G9 groups, single IP dose): 80.09%
Day 20 (RTV) [1, 11]: 8.51 ± 3.10
Tumor volume, Day 20 [1, 11]: 421.94 ± 104.20** mm^3
Day 22 (TGI %) ([1]; Day 22, G3-G9 groups, single IP dose): 74.55%
Day 22 (RTV) [1, 12]: 13.37 ± 4.65
Tumor volume, Day 22 [1, 12]: 665.68 ± 158.57** mm^3
T/C % on Day 22 ([1]; Day 22, G4 350 mg/kg, G5 325 mg/kg, G7 250 mg/kg, single IP): 68.77%
relative tumor volume compared with the model control group ([1]; G4 and G5 Day 4 to Day 18, G7 Day 4 to Day 15 (p<0.05-0.01), G9 only Day 4 (p<0.05)): reduced significantly
maximum value of TGI % ([1]; day of maximum: G3 Day 8, G4 Day 11, G5 Day 11, G9 Day 4, G7 Day 8, single IP): 94.46%
minimum value of T/C % ([1]; day of minimum: G4 Day 13, G5 Day 11, G7 Day 8, single IP): 10.01%
dose that could be tolerated (maximum tolerated dose, MTD) (ICR mice): 300 mg/kg
Weight change rate, Day 0 [2, 3]: 0.00 ± 0.00%
Weight of mice, Day 0 [2, 3]: 21.03 ± 0.47 g
weights of animals on Day 4 after administration ([2]; Day 4 (G7: Day 4 and Day 6), p<0.05): significantly reduced
Weight change rate, Day 4 [2, 4]: −8.40 ± 2.65 %
Weight of mice, Day 4 [2, 4]: 19.30 ± 0.85 g
weight loss rate on Day 4 after administration ([2]; Day 4, G4 350 mg/kg, G5 325 mg/kg, G7 250 mg/kg, single IP): less than 10%
Weight change rate, Day 6 [2, 5]: −1.16 ± 2.31%
Weight of mice, Day 6 [2, 5]: 20.82 ± 0.81 g
Weight change rate, Day 8 [2, 6]: 2.81 ± 1.37%
Weight of mice, Day 8 [2, 6]: 21.63 ± 0.62 g
Weight change rate, Day 11 [2, 7]: 4.96 ± 1.42%
Weight of mice, Day 11 [2, 7]: 22.07 ± 0.49 g
Weight change rate, Day 13 [2, 8]: 7.84 ± 1.39 %
Weight of mice, Day 13 [2, 8]: 22.67 ± 0.45 g
Weight change rate, Day 15 [2, 9]: 6.31 ± 1.39 %
Weight of mice, Day 15 [2, 9]: 22.35 ± 0.49 g
Weight change rate, Day 18 [2, 10]: 8.28 ± 1.61 %
Weight of mice, Day 18 [2, 10]: 22.75 ± 0.38 g
Weight change rate, Day 20 [2, 11]: 9.18 ± 1.65 %
Weight of mice, Day 20 [2, 11]: 22.95 ± 0.50 g
Weight change rate, Day 22 [2, 12]: 10.41 ± 2.03%
Weight of mice, Day 22 [2, 12]: 23.20 ± 0.47 g
Day 22 Mortality ([2]; Day 22, single IP dose (mg/kg)): 0%
body weight compared with model control group ([2]; G4 Day 18 to Day 20 (p<0.05), G5 Day 13 to Day 20 (p<0.05~0.01)): significantly increased
clinical symptoms ([2]; after single IP dose, compared with model control group): no significant differences in clinical symptoms
